Columns and labels:
CFA-induced hyperalgesia = CFA-induced hyperalgesia model; assay type: in vivo, rat; details: 6 hours after CFA
Source text: The sensitivity of peripheral sensory neurons can be enhanced such that they respond to both noxious and non-noxious stimuli resulting in chronic pain (See Julius, D. et al., Nature. 2001; 413:203; Woolf, C. J., et al., Science. […]; 288:1765). Prostaglandins and leukotrienes at the site of inflammation and tissue damage are partially responsible for this potentiation of the pain response. Prostaglandins promote the phosphorylation of ion channels, increasing the excitability and lowering the pain threshold of sensory neurons. Analogously, leukotriene B4 and related arachidonate metabolites of 12-LO bind to and activate the capsaicin receptor (or VR1) ion channel on neurons that respond to heat and low pH (See Piomelli D., TRENDS in Pharmacological Sciences, January 2001; 22(1):17-29). The effect of the compound of Example 10 was measured in the CFA-induced hyperalgesia model, and lipid mediator production was measured at peripheral and central sites.
The animals were dosed with vehicle, the compound of Example 10, naproxen or celecoxib, and then CFA was immediately injected into the hind footpad. To assess hyperalgesia, pressure was applied to the left hind paw at a slow and constant rate using a digital force gauge. Measurements were taken at 0 and 6 hours. The application of the force was stopped when the animal vocalized, or struggled. Readings were taken prior to dosing and CFA injection, and repeated six hours after the CFA injection. Two independent experiments were run and the data were analyzed separately.
The paws were collected at the end of each experiment (6 hours) and the levels of PGE2, LTB4 and TXB2 were measured in the exudates.

[1] = system: experimental autoimmune encephalomyelitis (EAE); assay: Experimental autoimmune encephalomyelitis (EAE) model of multiple sclerosis; assay type: in vivo, mouse
Procedure: Six groups of B6 mice were immunized with MOG/CFA and injected with pertussis toxin to induce experimental autoimmune encephalomyelitis (EAE), an animal model of Multiple sclerosis. Three groups of mice were treated with vehicle, 4-{3-[1-benzhydryl-5-chloro-2-(2-{[(2,6-dimethylbenzyl)sulfonyl]amino}ethyl)-1H-indol-3-yl]propyl}benzoic acid (Compound A), or 4-{2-[1-benzhydryl-5-chloro-2-(2-{[(3,4-dichlorobenzyl)sulfonyl]amino}-ethyl)-1H-indol-3-yl]ethoxy}benzoic acid (Compound B) from the day of Immunization (orally, 100 mg/kg, twice/day). Another three groups of mice were treated with vehicle, Compound A or Compound B starting on the day of EAE onset (day 15) (orally, 100 mg/kg, twice/day). […] The results are shown in the Table below, wherein mean clinical score is a mean of clinical evaluation of each animal for that particular day.
Animals are Scored as Follows:
• 0—no clinical signs of EAE (no paralysis) • 1—paralysis of tail • 2—paralysis of tail and partial hind leg paralysis • 3—paralysis of tail and complete hind leg paralysis • 4—paralysis of tail, complete hind leg paralysis and a partial front leg paralysis • 5—moribund animal (all four limbs paralyzed, lack of responsiveness, these mice were immediately euthanized).
In addition, the compounds of Examples 14 and 25 were also found to be efficacious in the mouse experimental autoimmune encephalomyelitis (EAE) model of multiple sclerosis. As shown by the data in the Table below, these compounds led to a delayed onset of disease and reduced severity of disease when administered orally in doses as low as 2.5 mg/kg.

[2] = system: primary dopaminergic neurons; assay: MPP+ exposure in dopaminergic neurons; assay type: cell-based, rat; details: 10 μM MPP+ 60 minutes, control 100, MPP+ alone 56.6
Procedure: Primary dopaminergic neurons were isolated from E15 rat embryos as described in Pong K., et al., (1997) J. Neurochem. 69 986-994. Briefly, the ventral mesencephalon was isolated and tissue was pooled in ice-cold phosphate buffer saline (PBS) without Ca^2+ and Mg^2+. The tissue was transferred to an enzymatic dissociation media containing 20 IU/ml papain in Earle's balanced salt solution (Worthington Biochemical, Freehold, N.J.) and incubated for 30 minutes at 37° C. After enzymatic dissociation, the papain solution was aspirated and the tissue mechanically triturated with a fire-polished Pasteur pipette in complete media [Neurobasal Medium with B-27 supplement (Gibco, Grand Island, N.Y.), penicillin/streptomycin, aphidicolin, glutamate] containing 2,000 IU/ml DNase and 10 mg/ml ovomucoid protease inhibitor. Single-cell suspensions in complete media were plated on pre-coated poly-L-ornithine/laminin 24-well plates (Becton-Dickinson, Bedford, Mass.) at a density of 5.0×10^5 cells/well. Cells were maintained for one week prior to experimentation.
Cultures were exposed to 10 μM MPP^+ for 60 minutes. After the exposure, fresh media was exchanged and fresh compound was added. Dopaminergic neuron viability was determined 24 hours later by measuring ^3H-dopamine uptake as described in Pong et al., 1997, supra.

## COc1ccc2cc([C@H](C)C(=O)O)ccc2c1 [naproxen, reference compound]
CFA-induced hyperalgesia
  LTB4 levels in paw exudates: increased
  TXB2 levels in paw exudates: greater than the inhibition with celecoxib
CFA-induced hyperalgesia; Example 10 at 25 mg/kg
  PGE2 levels in paw exudates: significantly inhibited

## O=C(O)c1ccc(OCCc2c(CCNS(=O)(=O)Cc3ccc(Cl)c(Cl)c3)n(C(c3ccccc3)c3ccccc3)c3ccc(Cl)cc23)cc1 [Compound B, 4-{2-[1-benzhydryl-5-chloro-2-(2-{[(3,4-dichlorobenzyl)sulfonyl]amino}-ethyl)-1H-indol-3-yl]ethoxy}benzoic acid]
[1]; 100 mg/kg orally twice/day from EAE onset (day 15), day 11 after immunization
  mean clinical score: 0
[1]; 100 mg/kg orally twice/day from EAE onset (day 15), day 12 after immunization
  mean clinical score: 0
[1]; 100 mg/kg orally twice/day from EAE onset (day 15), day 13 after immunization
  mean clinical score: 0
[1]; 100 mg/kg orally twice/day from EAE onset (day 15), day 14 after immunization
  mean clinical score: 0
[1]; 100 mg/kg orally twice/day from EAE onset (day 15), day 15 after immunization
  mean clinical score: 0.10
[1]; 100 mg/kg orally twice/day from EAE onset (day 15), day 16 after immunization
  mean clinical score: 0.45
[1]; 100 mg/kg orally twice/day from EAE onset (day 15), day 17 after immunization
  mean clinical score: 0.80
[1]; 100 mg/kg orally twice/day from EAE onset (day 15), day 18 after immunization
  mean clinical score: 1.05
[1]; 100 mg/kg orally twice/day from EAE onset (day 15), day 19 after immunization
  mean clinical score: 1.10
[1]; 100 mg/kg orally twice/day from EAE onset (day 15), day 20 after immunization
  mean clinical score: 1.00
[1]; 100 mg/kg orally twice/day from EAE onset (day 15), day 21 after immunization
  mean clinical score: 1.20
[1]; 100 mg/kg orally twice/day from EAE onset (day 15), day 22 after immunization
  mean clinical score: 1.10
[1]; 100 mg/kg orally twice/day from EAE onset (day 15), day 23 after immunization
  mean clinical score: 1.40
[1]; 100 mg/kg orally twice/day from EAE onset (day 15), day 24 after immunization
  mean clinical score: 1.35
[1]; 100 mg/kg orally twice/day from EAE onset (day 15), day 25 after immunization
  mean clinical score: 1.25
[1]; 100 mg/kg orally twice/day from EAE onset (day 15), day 26 after immunization
  mean clinical score: 1.40
[1]; 100 mg/kg orally twice/day from EAE onset (day 15), day 27 after immunization
  mean clinical score: 1.55
[1]; 100 mg/kg orally twice/day from day of immunization (Day 1), day 11 after immunization
  mean clinical score: 0
[1]; 100 mg/kg orally twice/day from day of immunization (Day 1), day 12 after immunization
  mean clinical score: 0
[1]; 100 mg/kg orally twice/day from day of immunization (Day 1), day 13 after immunization
  mean clinical score: 0
[1]; 100 mg/kg orally twice/day from day of immunization (Day 1), day 14 after immunization
  mean clinical score: 0
[1]; 100 mg/kg orally twice/day from day of immunization (Day 1), day 15 after immunization
  mean clinical score: 0
[1]; 100 mg/kg orally twice/day from day of immunization (Day 1), day 16 after immunization
  mean clinical score: 0
[1]; 100 mg/kg orally twice/day from day of immunization (Day 1), day 17 after immunization
  mean clinical score: 0.06
[1]; 100 mg/kg orally twice/day from day of immunization (Day 1), day 18 after immunization
  mean clinical score: 0.06
[1]; 100 mg/kg orally twice/day from day of immunization (Day 1), day 19 after immunization
  mean clinical score: 0.11
[1]; 100 mg/kg orally twice/day from day of immunization (Day 1), day 20 after immunization
  mean clinical score: 0.39
[1]; 100 mg/kg orally twice/day from day of immunization (Day 1), day 21 after immunization
  mean clinical score: 0.44
[1]; 100 mg/kg orally twice/day from day of immunization (Day 1), day 22 after immunization
  mean clinical score: 0.50
[1]; 100 mg/kg orally twice/day from day of immunization (Day 1), day 23 after immunization
  mean clinical score: 0.67
[1]; 100 mg/kg orally twice/day from day of immunization (Day 1), day 24 after immunization
  mean clinical score: 0.56
[1]; 100 mg/kg orally twice/day from day of immunization (Day 1), day 25 after immunization
  mean clinical score: 0.56
[1]; 100 mg/kg orally twice/day from day of immunization (Day 1), day 26 after immunization
  mean clinical score: 0.56
[1]; 100 mg/kg orally twice/day from day of immunization (Day 1), day 27 after immunization
  mean clinical score: 0.72
[1]; administered from the time of immunization, or in mice with or close to EAE
  prevention of EAE / reduction of clinical severity: can prevent EAE
[2]; 0.3 μM
  dopaminergic neuron viability (3H-dopamine uptake), Avg.: 74
[2]; 1 μM
  dopaminergic neuron viability (3H-dopamine uptake), Avg.: 71.6
[2]; 3 μM
  dopaminergic neuron viability (3H-dopamine uptake), Avg.: 78.6
[2]; 10 μM
  dopaminergic neuron viability (3H-dopamine uptake), Avg.: 83.2

Reference: patent US8283373B2, “Inhibitors of cytosolic phospholipase A2” (Pfizer Inc., priority 2005, dated 2012)
